Our source for the GI50 and TGI values is PubChem BioAssay (NCI).

Among the test systems are SR leukemia; OVCAR-4 ovarian; IGROV1 ovarian; SF-268 CNS; NCI-H23 lung; LOX IMVI melanoma; SK-MEL-28 melanoma; SNB-75 CNS; MALME-3M melanoma; NCI-H522 lung.
Common to all, as to assay: NCI anticancer screen, dose series, 48 h

Several values for one entry are separate records, joined by “and”; a condition that tells them apart may be missing. Identical values can stand only once.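 These data come from cells grown in 96-well plates and exposed to compound for 48 hours at five concentrations. Here, GI50 denotes the concentration required for 50% inhibition of growth. TGI: total growth inhibition.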

With `Cc1ccc2c(O)c(O)cc(NC(C)CCCN)c2n1` (centres undefined), the GI50 with SR leukemia is 30500 nM; in the test on OVCAR-4 ovarian it was 2880 nM; in the test with IGROV1 ovarian, 14200 nM; with SF-268 CNS, 16.7 µM; in the test with NCI-H23 lung, 3300 nM; in the test on LOX IMVI melanoma it was 4550 nM. Further, the GI50 with SK-MEL-28 melanoma is 27300 nM; in the test on SNB-75 CNS, 24.6 µM; in the test with MALME-3M melanoma, 18700 nM; with NCI-H522 lung, 3150 nM. The TGI with SR leukemia is 79.3 µM; with OVCAR-4 ovarian, 9.88 µM; in the test with IGROV1 ovarian it was 47.7 µM; in the test with SF-268 CNS, 66.2 µM; with NCI-H23 lung it was 19.3 µM; with LOX IMVI melanoma it was 25.4 µM. The TGI is 55.3 µM in the test on SK-MEL-28 melanoma, greater than 62.7 µM in the test on SNB-75 CNS, 41.6 µM in the test on MALME-3M melanoma and 9.87 µM in the test on NCI-H522 lung.

Turning to `CCOC(=O)/C=C/C(C(=O)/C=C/c1ccc(O)c(OC)c1)=C(O)\C=C\c1ccc(O)c(OC)c1`, the GI50 is 11000 nM with SR leukemia; 7360 nM with OVCAR-4 ovarian; 11000 nM with IGROV1 ovarian; 11.1 µM with SF-268 CNS; 1730 nM with NCI-H23 lung; 903 nM in the test with LOX IMVI melanoma. For the same compound, the GI50 in the test with SK-MEL-28 melanoma is 2000 nM; with SNB-75 CNS it was 11.2 µM; with MALME-3M melanoma, 9930 nM; in the test with NCI-H522 lung, 4510 nM. Further, the TGI in the test with SR leukemia is greater than 100 µM; in the test on OVCAR-4 ovarian, 25.7 µM; with IGROV1 ovarian, 93.8 µM; with SF-268 CNS it was 95.1 µM; in the test with NCI-H23 lung it was 4.42 µM; in the test with LOX IMVI melanoma, 3.12 µM. The TGI in the test on SK-MEL-28 melanoma was 6.09 µM; with SNB-75 CNS it was 28.7 µM; in the test with MALME-3M melanoma it was greater than 100 µM; in the test with NCI-H522 lung, 36.4 µM.

Consider `C/C(=N\NC(N)=S)C(CN(CC(C)C)CC(C)C)C(=O)Nc1ccc(C)cc1C` (centres undefined), for which the TGI in the test on SR leukemia, in the test on OVCAR-4 ovarian, in the test on IGROV1 ovarian, in the test on SF-268 CNS, in the test with NCI-H23 lung and in the test with LOX IMVI melanoma was greater than 100 µM in each case. For the same compound, the TGI with SK-MEL-28 melanoma, with SNB-75 CNS, in the test with MALME-3M melanoma and in the test with NCI-H522 lung was greater than 100 µM in each case.

As to `C=C1C(=O)O[C@H]2[C@H]1CC/C(COC(=O)NCCc1c[nH]c3ccc(OC)cc13)=C\CC[C@@]1(C)O[C@@H]21`, the GI50 in the test with SR leukemia is 1020 nM; in the test with OVCAR-4 ovarian it was 1690 nM; in the test with IGROV1 ovarian, 2080 nM; with SF-268 CNS, 3 µM; in the test with NCI-H23 lung, 2250 nM; in the test with LOX IMVI melanoma, 1320 nM. Moreover, the GI50 in the test with SK-MEL-28 melanoma was 1650 nM; in the test on SNB-75 CNS, 10 µM; with MALME-3M melanoma, 1910 nM; in the test with NCI-H522 lung, 1180 nM. The TGI turned out to be 9.33 µM in the test with SR leukemia; 5.09 µM in the test with OVCAR-4 ovarian; 4.7 µM with IGROV1 ovarian; 13.1 µM with SF-268 CNS; 5.84 µM with NCI-H23 lung; 2.78 µM in the test on LOX IMVI melanoma. In addition, the TGI turned out to be 3.22 µM with SK-MEL-28 melanoma, 21.7 µM with SNB-75 CNS, 3.9 µM in the test on MALME-3M melanoma and 2.75 µM in the test with NCI-H522 lung.

On to `N#CCc1ncc(-c2ccc(C(F)(F)F)cc2)c(NC2CCCCCC2)n1`, for which the GI50 in the test on SR leukemia was greater than 10000 nM; in the test on OVCAR-4 ovarian, greater than 10000 nM; in the test on IGROV1 ovarian it was greater than 10000 nM; in the test with SF-268 CNS, greater than 10 µM; with NCI-H23 lung, greater than 10000 nM; in the test with LOX IMVI melanoma, greater than 10000 nM. For the same compound, the GI50 in the test with SK-MEL-28 melanoma was greater than 10000 nM; in the test on SNB-75 CNS, greater than 10 µM; in the test on MALME-3M melanoma, greater than 10000 nM; with NCI-H522 lung, greater than 10000 nM. Moreover, the TGI in the test on SR leukemia, in the test on OVCAR-4 ovarian, in the test on IGROV1 ovarian, in the test on SF-268 CNS, with NCI-H23 lung and in the test on LOX IMVI melanoma was greater than 10 µM throughout. Also, the TGI in the test on SK-MEL-28 melanoma, in the test with SNB-75 CNS, with MALME-3M melanoma and in the test on NCI-H522 lung was greater than 10 µM in each case.

In the case of `COc1ccc2nc3cc(Cl)ccc3c(NCCCNCCC(C)O)c2c1` (centres undefined), the GI50 in the test on SR leukemia was 156 nM; in the test with OVCAR-4 ovarian, 282 nM; in the test on IGROV1 ovarian, 390 nM; in the test on SF-268 CNS it was 0.523 µM; in the test on NCI-H23 lung, 360 nM; in the test on LOX IMVI melanoma it was 356 nM. Besides, the GI50 in the test on SNB-75 CNS is 0.568 µM; in the test with MALME-3M melanoma, 714 nM; in the test on NCI-H522 lung it was 196 nM. Besides, the TGI was found to be 1.74 µM in the test with SR leukemia; 1.04 µM with OVCAR-4 ovarian; 2.47 µM with IGROV1 ovarian; 2.52 µM in the test with SF-268 CNS; 2.1 µM with NCI-H23 lung; 1.46 µM in the test with LOX IMVI melanoma. Moreover, the TGI with SNB-75 CNS stood at 1.93 µM; in the test on MALME-3M melanoma, 2.21 µM; with NCI-H522 lung, 0.75 µM.

For `O=C1CN(C(=O)c2ccccc2)Cc2[nH]c3ccccc3c21`, the TGI in the test with SR leukemia, with OVCAR-4 ovarian, in the test on IGROV1 ovarian, with NCI-H23 lung, with LOX IMVI melanoma and with SK-MEL-28 melanoma was greater than 100 µM each time. Moreover, the TGI in the test with SNB-75 CNS, with MALME-3M melanoma and in the test on NCI-H522 lung was greater than 100 µM throughout.

Regarding `COc1cc2c[n+](C)c3c4ccccc4ccc3c2cc1OC` (tested in a mixture with another compound), the GI50 in the test on SR leukemia is 818 nM; with OVCAR-4 ovarian it was 4040 nM; in the test with IGROV1 ovarian, 2750 nM; in the test on LOX IMVI melanoma, 4020 nM; in the test on SK-MEL-28 melanoma, 2890 nM; in the test with SNB-75 CNS, 3.11 µM. Besides, the values for the GI50 in the test on MALME-3M melanoma and in the test with NCI-H522 lung were 1280 nM and 785 nM, respectively. The TGI in the test on OVCAR-4 ovarian is 43.2 µM; with IGROV1 ovarian it was 44.1 µM; in the test on SF-268 CNS, 2.86 µM and 10.4 µM; with NCI-H23 lung it was 31.7 µM; in the test with LOX IMVI melanoma, 30.9 µM; in the test on SK-MEL-28 melanoma it was 8.22 µM and 18.6 µM. Besides, the TGI in the test with SNB-75 CNS was 8.49 µM and 15 µM; in the test on MALME-3M melanoma, 3.25 µM and 14 µM; in the test on NCI-H522 lung, 4.37 µM and 11.6 µM.
